Key:
[1] = Accelerated deterioration (xenon weather meter X25, 120 hours) of photochromic cured product prepared by kneading method; assay type: physicochemical; settings: 1 mm cured product, 0.106 mmol per 100 g monomer, A120/A0×100 after 120 hours xenon weather meter
Protocol: (§1) • [1] Maximum Absorption Wavelength (λmax): The maximum absorption wavelength after color development, measured using a spectrophotometer (instantaneous multichannel photodetector MCPD3000) manufactured by Otsuka Electronics Co., Ltd. was used as an indicator for the color tone during the color development. • [2] 23°C Color Optical Density (A23): A difference between an absorbancy measured after light irradiation at 23°C for 300 seconds {ε(300)} and an absorbancy without light irradiation ε(0) at the maximum absorption wavelength was used as an indicator for the color optical density. […] 23°C color fading half-life [τ1/2 (sec.)]: A time required for the absorbancy of the sample at the maximum absorption wavelength to decrease to 1/2 of {ε(300)-ε(0)} when the light irradiation was terminated after the light irradiation at 23°C for 300 seconds, was used as an indicator for the color fading speed. The shorter this time, the higher the color fading speed. • [4] Residual rate (A120/A0×100): The obtained photochromic plastic lens was subjected to accelerated deterioration using a xenon weather meter X25 manufactured by Suga Test Instruments Co., Ltd. for 120 hours. Subsequently, the color optical density was evaluated before and after the test, then a color optical density before the test (A0) and a color optical density after the test (A120) were measured, and a ratio (A120/A0) was defined as a residual rate. The residual rate was used as an indicator for a color developing durability. The higher the residual rate, the higher the color developing durability. The results of Examples 26, 50, and Comparative Examples 1 to 8 are summarized in Table 1, and the results of Examples 27 to 49 are summarized in Tables 2 and 3.
First, the photochromic compound obtained in Example 1, additives, and a polymerizable compound were mixed to obtain a curable composition.
As the polymerizable compound, a combination of the following polymerizable monomers was used. • 1,3-bis(isocyanatomethyl)cyclohexane: 36.7 parts by mass Pentaerythritol tetrakis(3-mercaptopropionate): 39.4 parts by mass • Polyoxyethylene polyoxypropylene lauryl ether (Wonder Surf 140 manufactured by Aoki Oil Industrial Co., Ltd.): 17.4 parts by mass • 1-decanethiol: 2.8 parts by mass • RX-1 adjusted according to the method described in Patent Document 13: 3.8 parts by mass
Note that the photochromic compound was added to the curable composition so that the amount of the photochromic compound was 0.106 mmol based on 100 g of the total amount of the polymerizable monomer. The following additives were used: Dimethyltin dichloride • : 0.05 part by mass • Irganox 245: 0.1 part by mass • 2-ethylhexyl 4-methoxycinnamate: 0.6 part by mass
The prepared curable composition was thoroughly defoamed, then injected into a glass mold having a 1 mm gap, and polymerized by cast polymerization. The polymerization was carried out in an air furnace while gradually raising the temperature from 27°C to 120°C over 18 hours. After the polymerization, the cured product was removed from the glass mold to obtain a photochromic cured product having a thickness of 1 mm. The obtained photochromic cured product was evaluated in the same manner as in Example 26.
(Examples 85 to 99, and Comparative Example 14 to 18) Photochromic cured products were prepared using photochromic compounds presented in Tables 6 and 7 in the same manner as in Example 84. The results of Examples 84 and 85 and Comparative Examples 14 to 18 are summarized in Table 6, and the results of Examples 86 to 99 are summarized in Table 7.

[2] = Accelerated deterioration (xenon weather meter X25, 120 hours) of photochromic laminate prepared by coating method; assay type: physicochemical; settings: 0.25 mmol per 100 g monomers, A120/A0×100 after 120 hours xenon weather meter
Text: First, the photochromic compound obtained in Example 1, a photoinitiator, and a polymerizable compound were mixed to obtain a curable composition.
Polyethylene glycol dimethacrylate (average molecular weight: 736): 42 parts by mass • Polyethylene glycol dimethacrylate (average molecular weight: 536): 12 parts by mass • Trimethylolpropane trimethacrylate: 38 parts by mass γ-methacryloyloxypropyl trimethoxysilane: 2 parts by mass Glycidyl methacrylate: 1 part by mass
Note that the photochromic compound was added to the curable composition so that the amount of the photochromic compound was 0.25 mmol based on 100 g of the total amount of the radical-polymerizable monomers.
Phenylbis(2,4,6-trimethylbenzoyl)phosphine oxide (photoinitiator: Omnirad 819): 0.3 parts by mass Ethylene bis(oxyethylene) bis[3-(5-tert-butyl-4-hydroxy-m-tolyl)propionate] (stabilizer, Irganox 245): 1 part by mass Bis(1,2,2,6,6-pentamethyl-4-piperidyl) sebacate: 3 parts by mass Leveling agent (L7001) manufactured by Dow Corning Toray Co.,Ltd.: 0.1 part by mass
First, a thiourethane-based plastic lens having a central thickness of 2 mm and a refractive index of 1.60 was prepared as the optical substrate. Note that this thiourethane-based plastic lens was pre-treated by alkaline etching with a 10% sodium hydroxide aqueous solution at 50°C for 5 minutes, followed by sufficient washing with distilled water.
A surface of the above-described plastic lens was coated with a moisture-curable primer (product name: TR-SC-P, manufactured by Tokuyama Corporation) at a rotation frequency of 70 rpm for 15 seconds, followed by 1000 rpm for 10 seconds, using a spin coater (1H-DX2, manufactured by MIKASA CO., LTD), Subsequently, about 2 g of the photochromic curable composition obtained above was spin-coated at a rotation frequency of 60 rpm for 40 seconds, followed by 600 rpm for 10 to 20 seconds, to form a photochromic coating layer with a film thickness of 40 µm.
The lens with the surface coated with the photochromic curable composition (photochromic coating layer) was irradiated with light using a metal halide lamp with an output power of 200 mW/cm^2 in a nitrogen gas atmosphere for 90 seconds to cure the coating film. Subsequently, the lens was further heated at 110°C for 1 hour to prepare a photochromic laminate having a photochromic layer.
as §1, with “The results of Examples 26, 50, and Comparative Examples 1 to 8 are summarized in Table 1, and the results of Examples 27 to 49 are summarized in Tables 2 and 3.” left out

| Residual rate [1] [%] | Residual rate [2] [%] | SMILES | further results |
| --- | --- | --- | --- |
| 72 | 65 | COc1ccc(C2(c3ccc(N(C)c4ccccc4)cc3)C=Cc3c4c(c5cc(-c6ccc(N7CCOCC7)cc6)c(OC)cc5c3O2)-c2ccccc2C4(C)C)cc1 (stereo not drawn) [Example 1] | – |
| 61 | 55 | CCCC1(CCC)c2cc(OC)ccc2-c2c1c1c(c3cc(OC)ccc23)OC(c2ccc(OC)cc2)(c2ccc(N(C)c3ccccc3)cc2)C=C1 (stereo not drawn) [Example 3] | – |
| 75 | 68 | CCCc1ccc(C2(c3ccc(N(C)c4ccccc4)cc3)C=Cc3c4c(c5cc(Sc6c(C)cccc6C)c(OC)cc5c3O2)-c2ccccc2C42CC(C)(C)CC(C)(C)C2)cc1 (stereo not drawn) [Example 5] | – |
| 68 | 61 | CCCC1(CCC)c2ccccc2-c2c1c1c(c3cc(OC)c(-c4ccc(OC)cc4OC)cc23)OC(c2ccc(N(C)c3ccccc3)cc2)(c2ccc(OC)c(F)c2)C=C1 (stereo not drawn) [Example 7] | – |
| 68 | 60 | COCCOCCC1(CCOCCOC)c2cc(C)ccc2-c2c1c1c(c3cc(C)ccc23)OC(c2ccc(N(C)c3ccc(F)cc3)cc2)(c2ccc(OC)c(OC)c2)C=C1 (stereo not drawn) [Example 8] | – |
| 68 | 60 | CCCCN(c1ccccc1)c1ccc(C2(c3ccc(C)cc3)C=Cc3c4c(c5cc(N6CCOCC6)c(OC)cc5c3O2)-c2ccccc2C4(CC)CC)cc1 (stereo not drawn) [Example 10] | Residual rate ([1]; listed as Formula (62)): 70%; Residual rate ([2]; listed as Formula (62)): 64% |
| – | 60 | COCCCCC1(CCCCOC)c2cc(Sc3c(C)cccc3C)ccc2-c2c1c1c(c3cc(OC)ccc23)OC(c2ccc(OC)cc2)(c2ccc(N(C)c3ccc(OC)cc3)cc2)C=C1 (stereo not drawn) [Example 11] | – |
| 71 | 63 | COCCN(c1ccccc1)c1ccc(C2(c3ccc4c(c3)OCCO4)C=Cc3c4c(c5cc6c(cc5c3O2)SC(C)(C)O6)-c2ccccc2C42CCC3(CCCCC3)CC2)cc1 (stereo not drawn) [Example 14] | Residual rate ([1]; listed as Formula (71)): 70% |
| 64 | 57 | CCC1(CC)CCC2(CC1)c1cc(OC(F)(F)F)ccc1-c1c2c2c(c3cc(OC)ccc13)OC(c1ccc(N(C)c3ccccc3)cc1)(c1ccc(OC)c(C)c1)C=C2 (stereo not drawn) [Example 16] | – |
| 73 | 64 | CCCC1(CCC)c2ccccc2-c2c1c1c(c3cc(OC)c(-c4ccc(OC)cc4OC)cc23)OC(c2ccc(C)cc2)(c2ccc(N(C)c3ccccc3)cc2)C=C1 (stereo not drawn) [Example 19] | – |
| 68 | 60 | CCCCC1(CCCC)c2cc(-c3ccc(OC(C)C)cc3)ccc2-c2c1c1c(c3cc(OC)ccc23)OC(c2ccc(N(C)c3ccccc3)cc2)(c2ccc(OC)c(F)c2)C=C1 (stereo not drawn) [Example 21] | – |
| – | 60 | COCCC1(CCOC)c2ccccc2-c2c1c1c(c3cc(OC)c(-c4ccc(N(c5ccccc5)c5ccccc5)cc4)cc23)OC(c2ccc(Oc3ccccc3)cc2)(c2ccc(N(C)c3ccccc3)cc2)C=C1 (stereo not drawn) [Example 23] | – |
| 65 | 62 | CCCC1(CCC)c2ccccc2-c2c1c1c(c3cc(OC)c(-c4ccc(N(C)c5ccccc5)cc4)cc23)OC(c2ccc(C)cc2)(c2ccc(N(C)c3ccccc3)cc2)C=C1 (stereo not drawn) [Example 24] | – |
| 68 | 63 | CCN(c1ccc(OC)cc1)c1ccc(C2(c3ccc(OC)cc3)C=Cc3c4c(c5cc(-c6ccc(N7CCOCC7)cc6)c(OC)cc5c3O2)-c2ccccc2C4(C)C)cc1 (stereo not drawn) [Example 25] | – |
| 68 | 60 | COCCOCCOCCOCCC1(CCOCCOCCOCCOC)c2cc(C(F)(F)F)ccc2-c2c1c1c(c3cc(OC)c(OC)cc23)OC(c2ccc(OC)cc2)(c2ccc(N(C)c3ccccc3)cc2)C=C1 (stereo not drawn) [Example 51] | – |
| – | 58 | CCCCOCCC1(CCOCCCC)c2ccccc2-c2c1c1c(c3cc(OC)c(NC(=O)c4ccccc4)cc23)OC(c2ccc(N(C)c3ccccc3)cc2)(c2ccc(OC)c(F)c2)C=C1 (stereo not drawn) [Example 53] | Residual rate ([2]; listed as Formula (95)): 60% |
| 72 | 65 | CCCC1(CCC)c2cc(OC(F)(F)F)ccc2-c2c1c1c(c3cc(OC)c(Sc4c(C)cccc4C)cc23)OC(c2ccc(N(C)c3ccccc3)cc2)(c2ccc(OC)c(OC)c2)C=C1 (stereo not drawn) [Example 57] | – |
| 67 | 61 | COCCCCC1(CCCCOC)c2ccccc2-c2c1c1c(c3cc(-c4ccc(OC)cc4OC)c(OC)cc23)OC(c2ccc(N(C)c3ccccc3)cc2)(c2ccc3c(c2)CCO3)C=C1 (stereo not drawn) [Example 62] | – |

| SMILES | Residual rate [1] [%] | Residual rate [2] [%] | further results |
| --- | --- | --- | --- |
| COc1ccc(N(C)c2ccc(C3(c4ccc(CCO[Si](C)(C)CC[Si](O[Si](C)(C)C)(O[Si](C)(C)C)O[Si](C)(C)C)cc4)C=Cc4c5c(c6cc(N(C)c7ccccc7)c(OC)cc6c4O3)-c3ccc(C(F)(F)F)cc3C53CCC(C)(C)CC3)cc2)cc1 (stereo not drawn) [Example 60] | – | 62 | Residual rate ([2]; listed as Formula (121)): 64% |
